Reference: patent US20230158105A1, “Compositions and uses of Oligo-chromopeptides and methods of making” (JDS Therapeutics, LLC, priority 2021, published 2023)
Marks after values point to notes of the source that are not given here.

Tests used:
[1] = system: corticosterone (CORT) induced aging rats; experiment: CORT-induced aging rats: body weight, serum and liver biochemistry, liver telomere length; type: in vivo, Wistar rats; conditions: oral gavage daily 21 days, O-CP30/O-CP300 = 30/300 mg HED, NR 300 mg HED, mean ± SD
Description: Wistar rats (n=7 in each group; 8 weeks old) were used and animals were reared at the temperature of (22±2° C.), humidity (55±5%) and a 12/12 hour light/dark cycle. Pellet food and water were provided ad libitum. The experiment was conducted under the protocol approved by Firat University. Two control groups were taken for studies. The normal control group was given phosphate-buffered saline (PBS) and the CORT control was given corticosterone (CORT). Doses of O-CPs and NR were determined based on the Human Equivalent Dose (HED) for Drug Development according to Shin et al. (2010). Conversion of human doses to animal doses was based on body surface area. A conversion factor of 6.17 was used to convert human doses to rat doses. The human equivalent dose was 30 mg and 300 mg for O-CPs and 300 mg for nicotinamide riboside. CORT (Sigma-Aldrich Co., St. Louis, Mo., USA) was suspended in saline with 0.1% Tween 80% and 0.2% DMSO. Rats in groups 2-7 were injected daily with CORT (40 mg/kg) subcutaneously for 21 consecutive days. All injections were performed in a volume of 2 ml/kg body weight, between 7:00 and 7:10 p.m. The rats were dosed with study product involving various dosages of O-CPs, NR and their combination by oral gavage, which was administered daily for 21 days. Serum levels of glucose, triglycerides, cholesterol, aspartate aminotransferase (AST), alanine aminotransferase (ALT), urea, and creatinine were analyzed with a portable automated chemistry analyzer (Samsung LABGEO PT10, Samsung Electronics Co., Suwon, Korea). Total serum CORT levels, and levels of nicotinamide adenine dinucleotide (NAD+) and NAD+ precursors such as nicotinamide (Nam), tryptophan (Trp), nicotinic acid (Na) and nicotinamide mononucleotide (NMN) and NADPH were measured […] using a commercial kit following the manufacturer's instructions by ELISA (Elx-800, Bio-Tek Instruments Inc, Vermont, USA). Telomere length in the liver was determined by qPCR. Telomerase activity was measured according to the telomerase repeat amplification protocol using a Trapeze kit (Chemicon/Millipore, Billerica, Mass.). The levels of glutathione (GSH) and reactive oxygen species (ROS) in the rat liver were determined using the corresponding commercial ELISA kits (Wako Pure Chemical Industries) according to the manufacturer's instructions. Serum levels of malondialdehyde (MDA) were analyzed by High Performance Liquid Chromatography (HPLC). Antioxidant enzymes [superoxide dismutase (SOD), catalase (CAT), glutathione peroxidase (GSHPx)] were measured using the relevant commercial kits according to the enzyme-linked immunosorbent assay (ELISA, Elx-800, Bio-Tek Instruments Inc, Vermont, USA) method. The samples size of the study was determined to be totally 49 rats (n=7; 7 groups) with the help of G*Power package program (Version 3.1.9.2) with alpha error 0.05 and 90% power with effect size 0.7 calculated from previous studies. The data was analyzed using statistical analysis software (SPSS 17.0). In this study, conformity to the assumption of normality from the prerequisites of the parametric tests was performed using the “Shapiro-Wilk” test and the homogeneity of the variances were checked with the “Levene” test. Analysis of variance (ANOVA) test was performed to determine the differences between the groups and post-hoc Tukey test was used for multiple comparisons of the groups. Statistical significance was accepted as P<0.05.

[2] = system: LPS-induced pyrexia in mice; experiment: LPS-induced pyrexia in mice: serum biochemistry, liver and lung antioxidant enzymes, pyrexia; type: in vivo, BALB/c mice; conditions: oral, 2 weeks before LPS, HED Se 200 μg, Zn 30 mg, O-CPs 300 mg, mean ± SD; for ALP / ALT / AST / BUN / Creatine / LDH / T Bilirubin: serum
Description: Six-week-old male BALB/c mice was purchased from the Firat University Experimental Animal Center. All mice were ad libitum access to standard rodent chow and water during the study. Mice were housed in cages throughout the study. The following conditions were maintained: temperature, 22±2° C.; relative humidity, 55±5%; and a 12-hours light: dark cycle. The care and treatment of the animals were in accordance with the guidelines established by the Use of Laboratory Animals and were approved by the Animal Care and Use Committee of Firat University. Two control groups were taken for studies. The normal control group was given PBS and the other control was given lipopolysaccharides (LPS) along with a vehicle, i.e., phosphate buffered saline. Forty-two mice were randomly divided into 6 treatment groups with 7 mice in each group as follows: Selenomethionine, zinc picolinate and O-CPs or vehicle were orally administered 2 weeks before LPS treatment. Control mice received 50 μL of PBS. Subsequently, rats in Groups 2 through 6 received LPS (0.04 mg/kg i.p.) 30 min after active treatment with Se, ZnPic, and O-CPs. Basal temperature readings for all treatments and LPS injections were done between 8.00 and 9.00 GMT to avoid temperature differences due to circadian rhythm. The change in rectal temperature in all rats were recorded 30 min after PBS or LPS injection and at subsequent 30 min intervals for 4 hours. After 6 hours of LPS treatment, the mice were euthanized and their blood, liver and lungs were collected for further analysis. Doses of selenomethionine, zinc picolinate and O-CPs were determined based on the Human Equivalent Dose (HED) for Drug Development according to Shin et al. (2010). Conversion of human doses to animal doses were based on body surface area. A conversion factor of 12.33 was used to convert human doses to mouse doses. The human equivalent dose was 200 μg of selenium (Se) from selenomethionine, 30 mg of zinc (Zn) from zinc picolinate and 300 mg of O-CPs. Selenomethionine dose: 200 μg/70 kg=2.86 μg/kg/day human*12.33=35.23 μg/kg/day per mouse; Zinc picolinate (20%) dose: 30 mg/70 kg=0.428 mg/kg/day human*12.33=5.28 elemental zinc mg/kg/day mouse=5.28*100/20=26.4 mg/kg/day per mouse; O-CPs dose: 300 mg/70 kg=4.29 mg/kg/day human*12.33=52.84 mg/kg/day per mouse. Serum levels of glucose, triglycerides, cholesterol, aspartate aminotransferase (AST), alanine aminotransferase (ALT), urea, and creatinine were analyzed with a portable automated chemistry analyzer (Samsung LABGEO PT10, Samsung Electronics Co., Suwon, Korea). Serum levels of MDA were analyzed by HPLC. Antioxidant enzymes (SOD, CAT, GSHPx) were measured using the relevant commercial kits according to the enzyme-linked immunosorbent assay (ELISA, Elx-800, Bio-Tek Instruments Inc, Vermont, USA) method. Serum, zinc and selenium levels in liver and lung were detected by atomic absorption spectroscopy (AAS). The samples size of the study was 42 mice (n=7; 6 groups) and analyzed with the help of G*Power package program (Version 3.1.9.2) with alpha error 0.05 and 85% power with effect size 0.65 calculated from previous studies. The data was analyzed using statistical analysis software (SPSS 17.0). In this study, conformity to the assumption of normality from the prerequisites of the parametric tests was performed using the “Shapiro-Wilk” test and the homogeneity of the variances were checked with the “Levene” test. Analysis of variance (ANOVA) test was performed to determine the differences between the groups and post-hoc Tukey test was used for multiple comparisons of the groups. Statistical significance was accepted as P<0.05.

Compound	Liver, CAT [2]	Liver, GSHPx [2]	Liver, MDA [2]	Liver, SOD [2]	Lung, CAT [2]	Lung, GSHPx [2]	Lung, MDA [2]	Lung, SOD [2]	ALP [2]	ALT [2]	AST [2]	BUN [2]	Creatine [2]	LDH [2]	T Bilirubin [2]	also measured
NC(=O)c1ccc[n+]([C@@H]2O[C@H](CO)[C@@H](O)[C@H]2O)c1 [NR, nicotinamide riboside]																Liver GSH ([1]; liver): 33.25 ± 2.07^bc U/mg protein; Liver NADPH ([1]; liver): 44.42 ± 2.31^c nmol/g; Liver Nicotinamide (Nam) ([1]; liver): 1.60 ± 0.06^c μmol/g; Liver Nicotinamide adenine dinucleotide NAD+ ([1]; liver): 0.59 ± 0.04^c μmol/g; Liver Nicotinamide mono nucleotide (NMN) ([1]; liver): 0.30 ± 0.02^bc μmol/g; Liver Nicotinic acid (Na) ([1]; liver): 1.63 ± 0.09^abc μmol/g; CORT [1]: 102.16 ± 8.68^a ng/ml; Final Body Weight [1]: 222.86 ± 23.11^b g; GLU ([1]; serum glucose): 119.86 ± 7.10^ab mg/dl; ALT ([1]; serum): 98.00 ± 5.55 U/L; AST ([1]; serum): 114.71 ± 10.92 U/L; BUN ([1]; serum): 22.90 ± 1.87 mg/dL; CAT ([1]; serum): 114.69 ± 4.82^d U/ml; Creatine ([1]; serum): 0.37 ± 0.08; GSH-Px ([1]; serum): 26.28 ± 1.98^d U/ml; MDA ([1]; serum): 1.74 ± 0.07^b nmol/ml; SOD ([1]; serum): 61.36 ± 4.5^e U/ml
C[Se]CC[C@H](N)C(=O)O [Se, selenomethionine]	41.89 ± 4.03^c U/mg	44.79 ± 3.86^c U/mg	5.86 ± 0.26^b nmol/mL	95.16 ± 5.06^b U/mg	32.29 ± 1.86^b U/mg	33.86 ± 3.41^b U/mg	6.67 ± 0.49^b nmol/mL	59.32 ± 4.81^b U/mg	285.43 ± 10.33^b IU/L	261.57 ± 16.16^bc IU/L	573.43 ± 59.23^b IU/L	34.36 ± 3.26^b mg/dL	0.59 ± 0.08^ab mg/dL	192.11 ± 10.72^c IU/L	0.95 ± 0.08^b mg/dL	
zinc picolinate [Zn]	43.06 ± 3.24^c U/mg	36.86 ± 1.98^d U/mg	5.92 ± 0.35^b nmol/mL	75.94 ± 5.93^c U/mg	28.53 ± 1.70^c U/mg	28.08 ± 1.98^c U/mg	6.83 ± 0.30^b nmol/mL	50.36 ± 2.93^c U/mg	292.71 ± 15.34^ab IU/L	280.43 ± 8.85^b IU/L	580.86 ± 32.61^b IU/L	35.57 ± 3.20^ab mg/dL	0.59 ± 0.06^ab mg/dL	216.13 ± 11.39^b IU/L	0.97 ± 0.08^b mg/dL	
